US20250230147A1, “LACTAMS AS CBL-B INHIBITORS” (Genentech, Inc., priority 2021, published 2025)
Structures can show the parent of a compound that is named as a salt.

What was measured:
[1] = molecular target: c-Cbl (Homo sapiens (Human), UniProt P22681); test: C-Cbl LCK Ub TR-FRET assay (c-cbl Lck HTRF); type: biochemical; details: for (fold-selectivity): C-cbl Lck HTRF IC50 relative to Cbl-b Lck HTRF IC50
Summary of the method: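 Signal is read once the detection mix has stood 20 min at ambient temperature. Curves are anchored by DMSO as maximum and by omission of LCK as minimum.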

[2] = molecular target: Cbl-b (Homo sapiens (Human), UniProt Q13191); test: Cbl-b LCK Ub TR-FRET assay (Cbl-b Lck HTRF); type: biochemical
Summary of the method: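 TR-FRET (340 nm excitation, 615/665 nm emission) read after adding HA-ubiquitin–UBE2D2 thioester, anti-HA-D2 and streptavidin-Eu. Beforehand, compounds incubated 60 min with biotinylated Cbl-b, then 90 min with His-LCK and ATP (1 mM in 2× mix); IC50 from 10 concentrations, DMSO high and no-LCK low controls.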

Chain of c-Cbl (P22681 47-435): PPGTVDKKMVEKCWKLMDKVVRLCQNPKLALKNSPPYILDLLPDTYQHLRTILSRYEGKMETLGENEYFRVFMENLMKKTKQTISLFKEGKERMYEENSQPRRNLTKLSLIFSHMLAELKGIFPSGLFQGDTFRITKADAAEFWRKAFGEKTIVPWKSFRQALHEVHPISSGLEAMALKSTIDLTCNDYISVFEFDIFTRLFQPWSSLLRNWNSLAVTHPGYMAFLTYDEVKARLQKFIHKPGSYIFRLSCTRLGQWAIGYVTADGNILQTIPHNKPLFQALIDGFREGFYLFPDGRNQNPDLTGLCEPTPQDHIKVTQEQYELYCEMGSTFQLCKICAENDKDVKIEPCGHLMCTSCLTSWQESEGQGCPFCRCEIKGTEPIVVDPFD
Chain of Cbl-b (Q13191 40-426): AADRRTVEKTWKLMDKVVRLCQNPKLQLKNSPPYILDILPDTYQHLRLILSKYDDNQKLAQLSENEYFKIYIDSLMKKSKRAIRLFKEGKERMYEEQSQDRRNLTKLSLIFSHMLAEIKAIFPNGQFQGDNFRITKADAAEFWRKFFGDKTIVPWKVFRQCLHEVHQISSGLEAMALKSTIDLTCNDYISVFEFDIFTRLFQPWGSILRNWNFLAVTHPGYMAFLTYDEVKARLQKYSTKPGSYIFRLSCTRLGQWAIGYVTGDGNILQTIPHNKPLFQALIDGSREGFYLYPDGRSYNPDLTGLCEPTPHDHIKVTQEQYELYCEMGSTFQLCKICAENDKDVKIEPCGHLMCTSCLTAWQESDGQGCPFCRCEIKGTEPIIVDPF

Compound | IC50 [1] [nM] | (fold-selectivity) [1] | IC50 [2] [nM]
Cn1cnnc1[C@@H](F)C1(c2cccc(N3Cc4c(cc(CN5CC(C)(O)C5)cc4C(F)(F)F)C3=O)c2)CC1 (single isomer, unassigned) [Compound 29] | 230 | 1.8x | 120
Cn1cnnc1[C@H](F)C1(c2cccc(N3Cc4c(I)cccc4C3=O)c2)COC1 [Compound 205, (R)-2-(3-(3-(fluoro(4-methyl-4H-1,2,4-triazol-3-yl)methyl)oxetan-3-yl)phenyl)-4-iodoisoindolin-1-one] | 770 | 2.7x | 290
Cn1cnnc1[C@@H](F)C1(c2cccc(N3Cc4c(cc(CN5CCC[C@H](CO)C5)cc4C(F)(F)F)C3=O)c2)COC1 [Compound 144, 2-(3-(3-((S)-fluoro(4-methyl-4H-1,2,4-triazol-3-yl)methyl)oxetan-3-yl)phenyl)-6-(((S)-3-(hydroxymethyl)piperidin-1-yl)methyl)-4-(trifluoromethyl)isoindolin-1-one] | 66 | 0.91x | 72
C[C@H]1CN(C)CCN1Cc1cc2c(c(C(F)(F)F)c1)CN(c1cccc(C3(Cc4nncn4C)CC(F)(F)C3)c1)C2=O [Compound 214, (S)-2-(3-(3,3-difluoro-1-((4-methyl-4H-1,2,4-triazol-3-yl)methyl)cyclobutyl)phenyl)-6-((2,4-dimethylpiperazin-1-yl)methyl)-4-(trifluoromethyl)isoindolin-1-one] | 41 | 0.96x | 42
Cc1cnnn1CC1(c2cccc(N3Cc4c(cc(CNC5(C)CCC5)cc4C(F)F)C3=O)c2)COC1 [Compound 305, 4-(difluoromethyl)-2-(3-(3-((5-methyl-1H-1,2,3-triazol-1-yl)methyl)oxetan-3-yl)phenyl)-6-(((1-methylcyclobutyl)amino)methyl) isoindolin-1-one] | 49 | (1.3x) | 39
CC(=O)N1CCN(Cc2cc3c(c(C(F)(F)F)c2)CN(c2cccc(C4([C@H](F)c5nncn5C)COC4)c2)C3=O)[C@@H](C(C)C)C1 [Compound 194, 6-(((S)-4-acetyl-2-isopropylpiperazin-1-yl)methyl)-2-(3-(3-((S)-fluoro(4-methyl-4H-1,2,4-triazol-3-yl)methyl)oxetan-3-yl)phenyl)-4-(trifluoromethyl)isoindolin-1-one] | 810 | 3.0x | 270
C[C@H](NC1(C)CCC1)c1cc2c(c(C(F)(F)F)c1)CN(c1cccc(C3([C@@H](F)c4nncn4C)COC3)c1)C2=O [Compound 248, 2-(3-(3-((R)-fluoro(4-methyl-4H-1,2,4-triazol-3-yl)methyl)oxetan-3-yl)phenyl)-6-((S)-1-((1-methylcyclobutyl)amino)ethyl)-4-(trifluoromethyl)isoindolin-1-one] | 5.2 | (0.79x) | 6.7
Cn1cnnc1[C@@H](F)C1(c2cccc(N3Cc4c(cc(CN5CC[C@@H](F)C5)cc4C(F)(F)F)C3=O)c2)COC1 [Compound 81, 2-(3-(3-((S)-fluoro(4-methyl-4H-1,2,4-triazol-3-yl)methyl)oxetan-3-yl)phenyl)-6-(((R)-3-fluoropyrrolidin-1-yl)methyl)-4-(trifluoromethyl)isoindolin-1-one] | 750 | 2.8x | 270
C[C@H](NC1(C)CCC1)c1cc2c(c(C(F)(F)F)c1)CN(c1cccc(C3(Cc4nncn4C)CC(F)(F)C3)c1)C2=O [Compound 246, (S)-2-(3-(3,3-difluoro-1-((4-methyl-4H-1,2,4-triazol-3-yl)methyl)-cyclobutyl)phenyl)-6-(1-((1-methylcyclobutyl)amino)ethyl)-4-(trifluoromethyl)isoindolin-1-one] | 4.4 | (0.76x) | 5.8
Cn1cnnc1[C@@H](F)C1(c2cccc(N3Cc4c(cc(CN5CC6(C5)CC6(F)F)cc4C(F)(F)F)C3=O)c2)COC1 [Compound 154, (S)-6-((1,1-difluoro-5-azaspiro[2.3]hexan-5-yl)methyl)-2-(3-(3-(fluoro(4-methyl-4H-1,2,4-triazol-3-yl)methyl)oxetan-3-yl)phenyl)-4-(trifluoromethyl)isoindolin-1-one] | 230 | 3.2x | 72
Cn1cnnc1CC1(c2cc(NCCN3CCCC3=O)nc(N3Cc4c(cc(CNC5(C)CCC5)cc4C(F)(F)F)C3=O)c2)CCC1 [Compound 338, 2-(4-(1-((4-methyl-4H-1,2,4-triazol-3-yl)methyl)cyclobutyl)-6-((2-(2-oxopyrrolidin-1-yl)ethyl)amino)pyridin-2-yl)-6-(((1-methylcyclobutyl)amino)methyl)-4-(trifluoromethyl)isoindolin-1-one] | 140 | (1.1x) | 130
Cn1cnnc1CC1(c2cc(CCC(C)(C)C)nc(N3Cc4c(cc(CNC5(C)CCC5)cc4C(F)(F)F)C3=O)c2)CCC1 [Compound 322, 2-(6-(3,3-dimethylbutyl)-4-(1-((4-methyl-4H-1,2,4-triazol-3-yl)methyl)cyclobutyl)pyridin-2-yl)-6-(((1-methylcyclobutyl)amino)methyl)-4-(trifluoromethyl)isoindolin-1-one] | 34 | (1.2x) | 27
C[C@@H](c1cc2c(c(C(F)(F)F)c1)CN(c1cccc(C3([C@@H](F)c4nncn4C)COC3)c1)C2=O)N1CC(C)(F)C1 [Compound 108, 2-(3-(3((R)-fluoro(4-methyl-4H-1,2,4-triazol-3-yl)methyl)oxetan-3-yl)phenyl)-6-((S)-1-(3-fluoro-3-methylazetidin-1-yl)ethyl)-4-(trifluoromethyl)isoindolin-1-one] | 160 | 2.0x | 83
C[C@@H](c1cc2c(c(C(F)(F)F)c1)CN(c1cccc(C3([C@H](F)c4nncn4C)COC3)c1)C2=O)N1CC(C)(F)C1 [Compound 110, 2-(3-(3-((S)-fluoro(4-methyl-4H-1,2,4-triazol-3-yl)methyl)oxetan-3-yl)phenyl)-6-((S)-1-(3-fluoro-3-methylazetidin-1-yl)ethyl)-4-(trifluoromethyl)isoindolin-1-one] | 650 | 2.0x | 320
COCC1(NCc2cc3c(c(C(F)(F)F)c2)CN(c2cccc(C4(Cc5nncn5C)CC(F)(F)C4)c2)C3=O)CC1 [Compound 367, 2-(3-(3,3-difluoro-1-((4-methyl-4H-1,2,4-triazol-3-yl)methyl)cyclobutyl)phenyl)-6-(((1-(methoxymethyl)cyclopropyl)amino)methyl)-4-(trifluoromethyl)isoindolin-1-one] | 29 | (0.96x) | 30
CCOc1cc(C2(Cc3nncn3C)CCC2)cc(N2Cc3c(cc(CNC4(C)CCC4)cc3C(F)(F)F)C2=O)n1 [Compound 359, 2-(6-ethoxy-4-(1-((4-methyl-4H-1,2,4-triazol-3-yl)methyl)cyclobutyl)pyridin-2-yl)-6-(((1-methylcyclobutyl)amino)methyl)-4-(trifluoromethyl)isoindolin-1-one] | 5.3 | (0.71x) | 11
CN1CC(Cc2cc3c(c(C(F)(F)F)c2)CN(c2cccc(C4(Cc5nncn5C)CC(F)(F)C4)c2)C3=O)C1 [Compound 442, 2-(3-(3,3-difluoro-1-((4-methyl-4H-1,2,4-triazol-3-yl)methyl)cyclobutyl)phenyl)-6-((1-methylazetidin-3-yl)methyl)-4-(trifluoromethyl)isoindolin-1-one formate] | 64 |  | 96
Cn1cnnc1CC1(c2ccnc(N3Cc4c(cc(CNC5(C)CCC5)cc4C(F)(F)F)C3=O)c2)CCC1 [Compound 326, 2-(4-(1-((4-methyl-4H-1,2,4-triazol-3-yl)methyl)cyclobutyl)pyridin-2-yl)-6-(((1-methylcyclobutyl)amino)methyl)-4-(trifluoromethyl)isoindolin-1-one] | 16 | (1.1x) | 15
Cn1cnnc1[C@H](F)C1(c2cccc(N3Cc4c(cc(CN5CC6(CCO6)C5)cc4C(F)(F)F)C3=O)c2)COC1 [Compound 139, (R)-6-(1-oxa-6-azaspiro[3.3]heptan-6-ylmethyl)-2-(3-(3-(fluoro(4-methyl-4H-1,2,4-triazol-3-yl)methyl)oxetan-3-yl)phenyl)-4-(trifluoromethyl)isoindolin-1-one] | 640 | 2.8x | 230
CC(C)[C@H]1CN(C)CCN1Cc1cc2c(c(C(F)(F)F)c1)CN(c1cccc(C3(Cc4nncn4C)COC3)c1)C2=O [Compound 407, (S)-6-((2-isopropyl-4-methylpiperazin-1-yl)methyl)-2-(3-(3-((4-methyl-4H-1,2,4-triazol-3-yl)methyl)oxetan-3-yl)phenyl)-4-(trifluoromethyl)isoindolin-1-one] | 5.7 | (0.80x) | 7.1
Cn1cnnc1CC1(c2cc(NC3CCCC3)cc(N3Cc4c(cc(CNC5(C)CCC5)cc4C(F)(F)F)C3=O)c2)COC1 [Compound 480, 2-(3-(cyclopentylamino)-5-(3-((4-methyl-4H-1,2,4-triazol-3-yl)methyl)oxetan-3-yl)phenyl)-6-(((1-methylcyclobutyl)amino)methyl)-4-(trifluoromethyl)isoindolin-1-one] | 180 | (2.8x) | 59
